From PubChem BioAssay (NCI)
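GI50 is the concentration that inhibits growth by half. TGI: total growth inhibition.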

Assays:
Assay in all cases: NCI tumour cell line growth inhibition, 384-well format
786-0 renal = tested on: 786-0 renal
A498 renal = tested on: A498 renal
A549 NSCLC = tested on: A549 NSCLC
ACHN renal = tested on: ACHN renal
BT-549 breast = tested on: BT-549 breast
CAKI-1 renal = tested on: CAKI-1 renal
CCRF-CEM leukemia = tested on: CCRF-CEM leukemia
COLO 205 colon = tested on: COLO 205 colon
DU-145 prostate = tested on: DU-145 prostate
EKVX NSCLC = tested on: EKVX NSCLC
HCC-2998 colon = tested on: HCC-2998 colon
HCT-15 colon = tested on: HCT-15 colon
HL-60(TB) leukemia = tested on: HL-60(TB) leukemia
HOP-62 NSCLC = tested on: HOP-62 NSCLC
HOP-92 NSCLC = tested on: HOP-92 NSCLC
HS 578T breast = tested on: HS 578T breast
HT29 colon = tested on: HT29 colon
IGROV1 ovarian = tested on: IGROV1 ovarian
K-562 leukemia = tested on: K-562 leukemia
KM12 colon = tested on: KM12 colon
LOX IMVI melanoma = tested on: LOX IMVI melanoma
M14 melanoma = tested on: M14 melanoma
MALME-3M melanoma = tested on: MALME-3M melanoma
MCF7 breast = tested on: MCF7 breast
MDA-MB-231 breast = tested on: MDA-MB-231 breast
MDA-MB-435 melanoma = tested on: MDA-MB-435 melanoma
MDA-MB-468 breast = tested on: MDA-MB-468 breast
MOLT-4 leukemia = tested on: MOLT-4 leukemia
NCI-H226 lung = tested on: NCI-H226 lung
NCI-H23 lung = tested on: NCI-H23 lung
NCI-H322M lung = tested on: NCI-H322M lung
NCI-H460 NSCLC = tested on: NCI-H460 NSCLC
NCI-H522 lung = tested on: NCI-H522 lung
NCI/ADR-RES ovarian = tested on: NCI/ADR-RES ovarian
OVCAR-3 ovarian = tested on: OVCAR-3 ovarian
OVCAR-4 ovarian = tested on: OVCAR-4 ovarian
OVCAR-5 ovarian = tested on: OVCAR-5 ovarian
OVCAR-8 ovarian = tested on: OVCAR-8 ovarian
PC-3 prostate = tested on: PC-3 prostate
RPMI-8226 leukemia = tested on: RPMI-8226 leukemia
RXF 393 renal = tested on: RXF 393 renal
SF-268 CNS = tested on: SF-268 CNS
SF-295 CNS = tested on: SF-295 CNS
SF-539 CNS = tested on: SF-539 CNS
SK-MEL-28 melanoma = tested on: SK-MEL-28 melanoma
SK-MEL-5 melanoma = tested on: SK-MEL-5 melanoma
SK-OV-3 ovarian = tested on: SK-OV-3 ovarian
SN12C renal = tested on: SN12C renal
SNB-19 CNS = tested on: SNB-19 CNS
SNB-75 CNS = tested on: SNB-75 CNS
SR leukemia = tested on: SR leukemia
SW-620 colon = tested on: SW-620 colon
T-47D breast = tested on: T-47D breast
TK-10 renal = tested on: TK-10 renal
U251 glioblastoma = tested on: U251 glioblastoma
UACC-257 melanoma = tested on: UACC-257 melanoma
UACC-62 melanoma = tested on: UACC-62 melanoma
UO-31 renal = tested on: UO-31 renal

O=C(Nc1ccc(OC(F)(F)F)cc1)c1sccc1NCc1ccnc2ccccc12
GI50 ([…]-0 renal): 4.38 µM
TGI (786-0 renal): 15.6 µM
GI50 (A498 renal): 2.57 µM
TGI (A498 renal): 12.8 µM
GI50 (A549 NSCLC): 4.5 µM
TGI (A549 NSCLC): 52.5 µM
GI50 (ACHN renal): 3.39 µM
TGI (ACHN renal): 20.7 µM
GI50 (BT-549 breast): 5.78 µM
TGI (BT-549 breast): 17.7 µM
GI50 (CAKI-1 renal): 3.2 µM
TGI (CAKI-1 renal): 14.8 µM
GI50 (CCRF-CEM leukemia): 2.03 µM
TGI (CCRF-CEM leukemia): 4.44 µM
GI50 (COLO 205 colon): 4.4 µM
TGI (COLO 205 colon): 22.8 µM
GI50 (DU-145 prostate): 4.94 µM
TGI (DU-145 prostate): > 100 µM
GI50 (EKVX NSCLC): 3.43 µM
TGI (EKVX NSCLC): 19.9 µM
GI50 (HCC-2998 colon): 4.65 µM
TGI (HCC-2998 colon): 12 µM
GI50 (HCT-15 colon): 3.55 µM
TGI (HCT-15 colon): 10.9 µM
GI50 (HL-60(TB) leukemia): 1.69 µM
TGI (HL-60(TB) leukemia): 3.17 µM
GI50 (HOP-62 NSCLC): 8.26 µM
TGI (HOP-62 NSCLC): 71.6 µM
GI50 (HOP-92 NSCLC): 3.99 µM
TGI (HOP-92 NSCLC): 15.7 µM
GI50 (HS 578T breast): 2.66 µM
TGI (HS 578T breast): 8.81 µM
GI50 (HT29 colon): 4.31 µM
TGI (HT29 colon): 17.1 µM
GI50 (IGROV1 ovarian): 2.47 µM
TGI (IGROV1 ovarian): 6.72 µM
GI50 (K-562 leukemia): 1.75 µM
TGI (K-562 leukemia): 3.66 µM
GI50 (KM12 colon): 3.74 µM
TGI (KM12 colon): 15.9 µM
GI50 (LOX IMVI melanoma): 3.48 µM
TGI (LOX IMVI melanoma): 10.6 µM
GI50 (M14 melanoma): 3.56 µM
TGI (M14 melanoma): 14.3 µM
GI50 (MALME-3M melanoma): 1.73 µM
TGI (MALME-3M melanoma): 8.96 µM
GI50 (MCF7 breast): 3.24 µM
TGI (MCF7 breast): 15.9 µM
GI50 (MDA-MB-231 breast): 1.9 µM
TGI (MDA-MB-231 breast): 15.2 µM
GI50 (MDA-MB-435 melanoma): 4.65 µM
TGI (MDA-MB-435 melanoma): 21.7 µM
GI50 (MDA-MB-468 breast): 2.06 µM
TGI (MDA-MB-468 breast): 5.16 µM
GI50 (MOLT-4 leukemia): 1.93 µM
TGI (MOLT-4 leukemia): 3.56 µM
GI50 (NCI-H226 lung): 4.4 µM
TGI (NCI-H226 lung): 19 µM
GI50 (NCI-H23 lung): 2.39 µM
TGI (NCI-H23 lung): 8.57 µM
GI50 (NCI-H322M lung): 4.43 µM
TGI (NCI-H322M lung): 40.4 µM
GI50 (NCI-H460 NSCLC): 2.93 µM
TGI (NCI-H460 NSCLC): 10.6 µM
GI50 (NCI-H522 lung): 2.96 µM
TGI (NCI-H522 lung): 11.6 µM
GI50 (NCI/ADR-RES ovarian): 2.8 µM
TGI (NCI/ADR-RES ovarian): 8.9 µM
GI50 (OVCAR-3 ovarian): 5.25 µM
TGI (OVCAR-3 ovarian): 19.6 µM
GI50 (OVCAR-4 ovarian): 4.43 µM
TGI (OVCAR-4 ovarian): 19.6 µM
GI50 (OVCAR-5 ovarian): 8.44 µM
TGI (OVCAR-5 ovarian): 43.8 µM
GI50 (OVCAR-8 ovarian): 3.99 µM
TGI (OVCAR-8 ovarian): 16.2 µM
GI50 (PC-3 prostate): 4.56 µM
TGI (PC-3 prostate): 25.7 µM
GI50 (RPMI-8226 leukemia): 2.06 µM
TGI (RPMI-8226 leukemia): 4.59 µM
GI50 (RXF 393 renal): 2.97 µM
TGI (RXF 393 renal): 14.3 µM
GI50 (SF-268 CNS): 6.24 µM
TGI (SF-268 CNS): 32 µM
GI50 (SF-295 CNS): 3.9 µM
TGI (SF-295 CNS): 19 µM
GI50 (SF-539 CNS): 5.11 µM
TGI (SF-539 CNS): 19.8 µM
GI50 (SK-MEL-28 melanoma): 5.71 µM
TGI (SK-MEL-28 melanoma): 35.2 µM
GI50 (SK-MEL-5 melanoma): 1.66 µM
TGI (SK-MEL-5 melanoma): 3.41 µM
GI50 (SK-OV-3 ovarian): 2.97 µM
TGI (SK-OV-3 ovarian): 9.49 µM
GI50 (SN12C renal): 3.82 µM
TGI (SN12C renal): 24.8 µM
GI50 (SNB-19 CNS): 11.9 µM
TGI (SNB-19 CNS): > 100 µM
GI50 (SNB-75 CNS): 5.09 µM
TGI (SNB-75 CNS): 51.6 µM
GI50 (SR leukemia): 1.81 µM
TGI (SR leukemia): 4.06 µM
GI50 (SW-620 colon): 6.31 µM
TGI (SW-620 colon): 23 µM
GI50 (T-47D breast): 2.03 µM
TGI (T-47D breast): 6.57 µM
GI50 (TK-10 renal): 11 µM
TGI (TK-10 renal): 65 µM
GI50 (U251 glioblastoma): 11.8 µM
TGI (U251 glioblastoma): > 100 µM
GI50 (UACC-257 melanoma): 3.51 µM
TGI (UACC-257 melanoma): 13.6 µM
GI50 (UACC-62 melanoma): 2.76 µM
TGI (UACC-62 melanoma): 14.3 µM
GI50 (UO-31 renal): 8.23 µM
TGI (UO-31 renal): > 100 µM
